Data taken from PMC11078746 (Nature, 2024).

What was measured:
[1] = Rat PK; type: in vivo
Protocol: PK parameters were determined by non-compartmental analysis. Intravenous bolus studies in mouse, rat and dog were performed at 1, 1 and 0.1 mg per kg respectively (Extended Data Table 1).

[2] = tested on: SW48; assay: 4 day proliferation assay (CellTiter-Glo); conditions: for GI50: Homo sapiens, SW48, 96 h
[3] = tested on: OC314; assay: CFA 10-14 day clonogenic assay; type: cell-based; conditions: Homo sapiens, OC-314
[4] = tested on: LS180; assay: 4 day proliferation assay (CellTiter-Glo); conditions: Homo sapiens, LS180, 96 h, read-out: 4 day assay GI50
[5] = tested on: LS513; assay: 4 day proliferation assay (CellTiter-Glo); conditions: Homo sapiens, LS-513, 96 h, read-out: 4 day assay GI50
[6] = tested on: OC314; assay: 4 day proliferation assay (CellTiter-Glo); conditions: Homo sapiens, OC-314, 96 h, read-out: 4 day assay GI50
[7] = tested on: LS513; assay: CFA 10-14 day clonogenic assay; type: cell-based; conditions: Homo sapiens, LS-513
[8] = tested on: IGROV1; assay: CFA 10-14 day clonogenic assay; type: cell-based; conditions: Homo sapiens, IGROV-1
[9] = tested on: microsatellite-stable (MSS) cells; assay: Clonogenic assay, 10-to-14-day; conditions: 10-to-14-day clonogenic assay
[10] = tested on: SNU407; assay: 4 day proliferation assay (CellTiter-Glo); conditions: Homo sapiens, SNU-407, 96 h, read-out: 4 day assay GI50
[11] = tested on: JHUEM2; assay: 4 day proliferation assay (CellTiter-Glo); conditions: Homo sapiens, 96 h, read-out: 4 day assay GI50
[12] = tested on: HEC6; assay: 4 day proliferation assay (CellTiter-Glo); conditions: Homo sapiens, HEC-6, 96 h, read-out: 4 day assay GI50
[13] = logD / logP; type: physicochemical; conditions: for logD: 1-octanol/water, pH 7.4, 1-octanol and water at pH 7.4
[14] = tested on: CAL33; assay: 4 day proliferation assay (CellTiter-Glo); conditions: Homo sapiens, CAL-33, 96 h, read-out: 4 day assay GI50
[15] = tested on: 2313287; assay: 4 day proliferation assay (CellTiter-Glo); conditions: Homo sapiens, 96 h, read-out: 4 day assay GI50
[16] = tested on: RKO; assay: CFA 10-14 day clonogenic assay; type: cell-based; conditions: Homo sapiens
[17] = tested on: CW2; assay: CFA 10-14 day clonogenic assay; type: cell-based; conditions: Homo sapiens, CW-2
[18] = tested on: SW48; assay: cells; conditions: Homo sapiens, SW48, read-out: CFA 10-14 day assay GI50
[19] = tested on: HEC265; assay: 4 day proliferation assay (CellTiter-Glo); conditions: Homo sapiens, 96 h, read-out: 4 day assay GI50
[20] = tested on: LIM2405; assay: 4 day proliferation assay (CellTiter-Glo); conditions: Homo sapiens, 96 h, read-out: 4 day assay GI50
[21] = tested on: Ishikawa; assay: 4 day proliferation assay (CellTiter-Glo); conditions: Homo sapiens, 96 h, read-out: 4 day assay GI50
[22] = tested on: HEC59; assay: CFA 10-14 day clonogenic assay; type: cell-based; conditions: Homo sapiens
[23] = tested on: HEC265; assay: CFA 10-14 day clonogenic assay; type: cell-based; conditions: Homo sapiens
[24] = tested on: RKO; assay: 4 day proliferation assay (CellTiter-Glo); conditions: Homo sapiens, 96 h, read-out: 4 day assay GI50
[25] = tested on: IGROV1; assay: 4 day proliferation assay (CellTiter-Glo); conditions: Homo sapiens, IGROV-1, 96 h, read-out: 4 day assay GI50
[26] = tested on: LOVO; assay: CFA 10-14 day clonogenic assay; type: cell-based; conditions: Homo sapiens
[27] = tested on: OVK18; assay: 4 day proliferation assay (CellTiter-Glo); conditions: Homo sapiens, OVK18, 96 h, read-out: 4 day assay GI50
[28] = tested on: SNUC5; assay: 4 day proliferation assay (CellTiter-Glo); conditions: Homo sapiens, 96 h, read-out: 4 day assay GI50
[29] = tested on: 23132/87 xenograft; assay: MSI xenograft model efficacy; type: in vivo, mouse; conditions: 23132/87, Gastric carcinoma; 60 or 120 mg/kg
Protocol: (§1) All animal studies were conducted in accordance with ethics and procedures covered by permit BS-2275 and BS-1975 issued by the Kantonales Veterinäramt Basel-Stadt and in strict adherence to guidelines of the Eidgenössisches Tierschutzgesetz and the Eidgenössische Tierschutzverordnung, Switzerland. All animal studies were approved by the internal ethics committee. All animals had access to food and water ad libitum and were identified with transponders. They were housed in a specific-pathogen-free facility in IVC racks under a 12 h–12 h light–dark cycle. To establish cell-line-derived xenograft models, 6–7-week-old female athymic nude (Crl:NU(NCr)-Foxn1^nu) or SCID-BEIGE (CB17.Cg-PrkdcscidLystbg-J/Crl) mice from Charles River were engrafted subcutaneously with 5 million tumour cells in HBSS (H6648, Sigma-Aldrich). For SNU-407, Lovo, IM95, RL95.2, Ishikawa and IGROV-1, the cells were concentrated in 50% Matrigel (354234, Corning). Patient-derived xenografts were induced and expanded by transplantation as previously described. […] For the efficacy experiment, mice were randomized into groups (n = 5–6) for a mean tumour size of 100–150 mm^3. […] Blood samples were collected on day 7 and 91. […] Tumour responses are reported with the measures of tumour volumes from the treatment start. […] Animals were randomized (n = 3) and tumour samples were collected at 0, 1, 4, 8 and 24 h on the first day and then collected 4 h after the last treatment on day 3, 8, 10, 14 (including a 24 h timepoint), 17 and 21. Tumours were excised, weighed, either frozen in liquid nitrogen and cryogenic dry pulverized with the CryoPrep system (model CP-02, Covaris) or processed to FFPE after fixation. […] On day 12, blood samples were collected for PK analysis. On the last day (3 h after the last treatment), tumours were excised, weighed, frozen in liquid nitrogen and cryogenic dry pulverized for PD analysis.

[30] = tested on: LoVo xenograft; assay: MSI xenograft model efficacy; type: in vivo, mouse; conditions: colorectal carcinoma, 60 or 120 mg/kg
Protocol: as §1

## CCc1c(N2CCN(C(=O)c3ncnc(C)c3O)CC2)c(=O)n2nc(C3=CCOCC3)nc2n1CC(=O)Nc1ccc(C(F)(F)F)cc1Cl [HRO761]
[1]
  Rat PK, oral bioavailability (F): 74 % F
[2]; HRO761 alone
  GI50: 100 nM
[2]; HRO761 dose response with 3.2 µM ATMi KU-55933
  GI50: 200 nM
[2]; read-out: 4 day assay GI50, SW48
  GI50: 58 nM
[2]; SW48
  unbound GI90: 160 nM
[3]
  GI50: 4630 nM
[4]
  GI50: 3500 nM
[5]
  GI50: ≥ 10000 nM
[6]
  GI50: ≥ 10000 nM
[7]
  GI50: ≥ 10000 nM
[8]
  GI50: 473 nM
[9]
  effect on viability: no effect
[10]
  GI50: 440 nM
[11]
  GI50: ≥ 10000 nM
[12]
  GI50: 365 nM
[13]
  logP: 3.4
  logD: 1.8
[14]
  GI50: ≥ 10000 nM
[15]
  GI50: ≥ 10000 nM
[16]
  GI50: 243 nM
[17]
  GI50: 68 nM
[18]
  GI50: 31 nM
[19]
  GI50: ≥ 10000 nM
[20]
  GI50: 1530 nM
[21]
  GI50: 228 nM
[22]
  GI50: 133 nM
[23]
  GI50: 61 nM
[24]
  GI50: 2910 nM
[25]
  GI50: 2760 nM
[26]
  GI50: 73 nM
[27]
  GI50: ≥ 10000 nM
[28]
  GI50: 7240 nM
[29]
  Best average response: 200
[30]
  Best average response: -20

## CCc1c(N2CCN(C(=O)c3ncccc3O)CC2)c(=O)n2nc(C3=CCOCC3)nc2n1CC(=O)Nc1ccc(C(F)(F)F)cc1C [compound 3]
[1]
  Rat PK, oral bioavailability (F): 20 % F
[13]
  logD: 2.9
